Like-named read-outs stand apart in the source and are kept apart here.
Assays:
[1] = Block of ^125 I-ABA binding to lung membranes
A3 AR [2] = test: A3 AR selectivity of radioligand; assay type: binding
Description: These receptors can be labeled nonselectively by agonist radioligands that also label A1 AR.

[3] = target: T1, recombinant human H/F-A1 adenosine receptor (Homo sapiens, UniProt P30542); test: Saturation radioligand binding, H/F-A1 (CHO-K1 membranes)
T1 construct: expressed in transfected cells
T1 sequence (P30542 with tags, fused parts or gaps): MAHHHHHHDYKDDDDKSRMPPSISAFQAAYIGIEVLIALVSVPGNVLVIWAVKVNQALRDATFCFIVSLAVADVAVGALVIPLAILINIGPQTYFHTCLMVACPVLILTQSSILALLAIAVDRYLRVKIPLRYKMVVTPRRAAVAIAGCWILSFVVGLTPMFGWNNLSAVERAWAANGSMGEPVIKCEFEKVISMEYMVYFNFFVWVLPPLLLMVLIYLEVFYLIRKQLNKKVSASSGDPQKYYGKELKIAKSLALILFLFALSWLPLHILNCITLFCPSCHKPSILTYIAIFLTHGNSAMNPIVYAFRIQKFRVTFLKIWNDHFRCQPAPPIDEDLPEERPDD

[4] = target: T2, recombinant human native-A1 adenosine receptor (Homo sapiens, UniProt P30542); test: Saturation radioligand binding, native-A1 (CHO-K1 membranes)
T2 sequence (P30542 1-326): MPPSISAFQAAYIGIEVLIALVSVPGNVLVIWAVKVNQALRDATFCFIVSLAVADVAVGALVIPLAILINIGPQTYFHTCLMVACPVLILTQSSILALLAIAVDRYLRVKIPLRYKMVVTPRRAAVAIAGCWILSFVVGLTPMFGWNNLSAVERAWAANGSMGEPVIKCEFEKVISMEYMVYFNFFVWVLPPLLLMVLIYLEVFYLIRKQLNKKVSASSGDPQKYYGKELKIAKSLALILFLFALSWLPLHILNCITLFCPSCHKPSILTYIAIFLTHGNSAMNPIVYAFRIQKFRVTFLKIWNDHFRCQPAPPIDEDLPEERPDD

[5] = system: H/F-A1 adenosine receptors; test: Inhibition of cyclic AMP accumulation, CHO-K1 cells with H/F-A1; assay type: cell-based, human
Protocol: (§3) CHO-K1 cells were incubated without or with 100 mg/mL pertussis toxin. […] Five-hundred microliters of the supernatants were removed, acetylated, and assayed for cyclic AMP by automated radioimmunoassay.

[6] = target: T2, recombinant human native-A1 adenosine receptor; test: Competition for radioligand binding, native-A1; design: expressed in transfected cells; settings: competition with 1 nM ^125 I-ABA
Protocol: (§1) The experiments were performed in triplicate with 10 μg membrane protein in a total volume of 0.1 mL with 0.5 U/mL adenosine deaminase, with and without 5 mM MgCl2 for agonist and antagonist binding, respectively. […] Bmax and KD were calculated by nonlinear least squares interpolation for single or two-site binding models. K1 values for different compounds were derived from IC50 values. Data from replicate experiments were tabulated as means ± SEM.
(§2) Twelve compounds were evaluated to determine their potencies to compete for radioligand binding to native- and H/F-A1 or A2A receptors.

[7] = system: untransfected CHO-K1 cells; test: Cyclic AMP levels in untransfected CHO-K1 cells; assay type: cell-based; settings: concentrations up to 1 μM
Protocol: as §3

[8] = target: T1, recombinant human H/F-A1 adenosine receptor; test: Competition for radioligand binding, H/F-A1; settings: competition with 1 nM ^125 I-ABA
Protocol: as §1, §2

[9] = target: rat striatal A2A receptors; settings: cited from earlier work
[10] = target: recombinant human native-A2A adenosine receptor (Homo sapiens, UniProt P29274); test: Competition for radioligand binding, native-A2A
Sequence of recombinant human native-A2A adenosine receptor (P29274 whole entry): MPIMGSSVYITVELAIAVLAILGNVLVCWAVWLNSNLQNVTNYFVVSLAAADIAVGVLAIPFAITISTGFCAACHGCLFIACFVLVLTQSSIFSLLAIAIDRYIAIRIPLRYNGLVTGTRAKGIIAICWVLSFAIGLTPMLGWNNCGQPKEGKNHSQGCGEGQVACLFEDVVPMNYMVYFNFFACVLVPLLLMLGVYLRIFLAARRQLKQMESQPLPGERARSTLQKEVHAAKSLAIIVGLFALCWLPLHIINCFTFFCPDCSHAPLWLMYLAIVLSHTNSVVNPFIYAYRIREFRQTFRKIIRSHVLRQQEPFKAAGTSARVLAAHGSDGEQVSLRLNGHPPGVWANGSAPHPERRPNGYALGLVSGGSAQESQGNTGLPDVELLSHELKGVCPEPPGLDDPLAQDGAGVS

[11] = target: recombinant human H/F-A2A adenosine receptor (Homo sapiens, UniProt P29274); test: Competition for radioligand binding, H/F-A2A
Sequence of recombinant human H/F-A2A adenosine receptor (P29274 with tags, fused parts or gaps): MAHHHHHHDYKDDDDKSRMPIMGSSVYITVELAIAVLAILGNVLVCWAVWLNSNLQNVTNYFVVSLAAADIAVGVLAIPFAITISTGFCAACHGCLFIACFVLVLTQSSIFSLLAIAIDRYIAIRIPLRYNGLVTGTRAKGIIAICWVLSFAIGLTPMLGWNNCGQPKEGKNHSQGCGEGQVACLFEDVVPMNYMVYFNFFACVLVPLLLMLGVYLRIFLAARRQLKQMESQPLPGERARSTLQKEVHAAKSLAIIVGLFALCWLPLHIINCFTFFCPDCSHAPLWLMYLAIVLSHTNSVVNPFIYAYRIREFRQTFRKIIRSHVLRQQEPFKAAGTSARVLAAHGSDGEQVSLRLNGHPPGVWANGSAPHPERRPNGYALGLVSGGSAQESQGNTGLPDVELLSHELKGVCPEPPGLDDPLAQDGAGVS

A3 AR [12] = test: Activation of A3 AR; settings: >μM levels
A2B adenosine receptors = target: T3, A2B adenosine receptors (Homo sapiens, UniProt P29275); test: A2B radioligand binding assay; settings: FIG. 6
T3 construct: made in house
T3 sequence (P29275 1-332): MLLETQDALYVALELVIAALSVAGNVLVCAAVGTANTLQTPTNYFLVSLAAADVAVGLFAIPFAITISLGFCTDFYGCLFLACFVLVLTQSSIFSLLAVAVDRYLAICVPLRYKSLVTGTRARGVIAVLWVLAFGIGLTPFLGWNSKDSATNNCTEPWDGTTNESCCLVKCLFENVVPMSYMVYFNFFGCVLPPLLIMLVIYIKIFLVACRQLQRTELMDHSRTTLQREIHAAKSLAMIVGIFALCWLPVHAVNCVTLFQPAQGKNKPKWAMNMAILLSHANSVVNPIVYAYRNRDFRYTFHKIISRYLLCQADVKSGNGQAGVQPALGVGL

native A2A receptors = test: Effect of GTPγS on agonist radioligand binding to native A2A; design: species or system human; settings: Sf9 cell membranes
A2B receptors = target: T4, A2B receptors (Homo sapiens, UniProt P29275); test: Inhibition of NECA-stimulated cyclic AMP accumulation in A2B transfected HEK-293 cells (Schild analysis); assay type: cell-based; settings: read-out: pA2 (antagonism, Schild analysis) (converted)
T4 construct: expressed in transfected cells; host or cells: HEK-293
T4 sequence (P29275 1-332): T3 sequence (P29275 1-332)
Description: The radioligands used to label the A1 and A2A receptors are commonly used and are commercially available. However, there are no reports in the literature of radioligands useful for detecting A2B receptors. […] Based on this observation [^3 H]DPX was custom triiated by NEN.

[13] = ^125 I-ABA: high affinity sites
[14] = competition with 70 nM [^3 H]NECA
[15] = read-out: K1, competition with 70 nM [^3 H]NECA

CNC(=O)[C@H]1O[C@@H](n2cnc3c(NCc4cccc(I)c4)ncnc32)[C@H](O)[C@@H]1O [IB-MECA]
block of ^125 I-ABA binding to lung membranes ([1]; concentration not given): blocked

CCCn1c(=O)c2[nH]c(-c3ccc(OCC(=O)O)cc3)nc2n(Cc2ccc(N)c([125I])c2)c1=O [^125 I-ABOPX]
selectivity of radioligand (A3 AR [2]): A3 AR-selective

Nc1ccc(CNc2ncnc3c2ncn3[C@@H]2O[C@H](CO)[C@@H](O)[C@H]2O)cc1I [^125 I-ABA]
Kd [3, 13]: 0.00098 ± 0.00016 µM
Kd [4, 13]: 0.102 ± 3e-05 µM

Cn1c(=O)c2[nH]cnc2n(C)c1=O [theophylline]
affinity for A3 AR (sheep A3AR): very low affinity
affinity for A3 AR (rat A3AR): very low affinity

OC[C@H]1O[C@@H](n2cnc3c(NC4CCCC4)ncnc32)[C@H](O)[C@@H]1O [CPA, N^6 -cyclopentyladenosine]
inhibition of cyclic AMP accumulation [5]: potently inhibited
inhibition of cyclic AMP accumulation after pertussis toxin ([5]; preincubated with pertussis toxin): abolished
NH (Hill coefficient) [6]: 0.93 ± 0.16
effect on cyclic AMP levels [7]: no effect
NH (Hill coefficient) [8]: 0.79

CCNC(=O)[C@H]1O[C@@H](n2cnc3c(N)nc(NCCc4ccc(CCC(=O)O)cc4)nc32)[C@H](O)[C@@H]1O [[^3 H]CGS21680]
Kd ([9]; G protein coupled rat striatal A2A receptors): 0.0039 µM
Kd ([9]; G protein uncoupled rat striatal A2A receptors): 0.051 µM

CC(C)N(C)c1nc2c(N[C@@H]3CC4CC3CC4O)ncnc2n1C (stereo partly shown) [WRC-0571]
block of ^125 I-ABA binding to lung membranes ([1]; 1 μM): not blocked

CCCn1c(=O)c2nc(-c3ccc(OCC(=O)O)cc3)[nH]c2n(Cc2ccc(N)c(I)c2)c1=O [1ABOPX, 3-iodoaminobenzyl-1-propyl-8-p-(oxyacetate)-phenylxanthine]
NH (Hill coefficient) [10, 14]: 0.84 ± 0.17
Ki [10, 15]: 0.0237 ± 0.0075 µM
NH (Hill coefficient) [11, 14]: 0.94 ± 0.14
Ki [11, 15]: 0.022 ± 0.0036 µM

CCCn1c(=O)c2[nH]c(-c3ccc(OCC(=O)NCCN)cc3)nc2n(CCC)c1=O [XAC, xanthine amino congenen]
NH (Hill coefficient) [6]: 1.12 ± 0.11
NH (Hill coefficient) [8]: 0.96

CCNC(=O)[C@H]1O[C@@H](n2cnc3c(N)nc(NCCc4ccc(CCC(=O)O)cc4)nc32)[C@H](O)[C@@H]1O [CGS21680, 2-(r-(s-carboxyethyl)phen-ethylamino)-5'-N-ethylcarboxamidondenosine]
activation of A3 AR (A3 AR [12]): activate A3 AR

CCn1c(=O)c2[nH]c(-c3ccccc3)nc2n(CC)c1=O [[^3 H]DPX]
detection of A2B receptors by radioligand binding (A2B adenosine receptors): first successful detection of A2B adenosine receptors by radioligand binding

Cn1c(=O)c2[nH]c(-c3ccc(S(=O)(=O)O)cc3)nc2n(C)c1=O [8-SPT, 8-P-sulfophenyltheophylline]
NH (Hill coefficient) [6]: 0.87 ± 0.05
NH (Hill coefficient) [8]: 0.84

Nc1ccc(CNc2ncnc3c2ncn3[C@@H]2O[C@H](CO)[C@@H](O)[C@H]2O)cc1[125I] [^125 I-ABA]
Bmax [3]: 3.3 ± 0.5 pmol/mg protein
Bmax [4]: 3.5 ± 0.8 pmol/mg protein

Nc1nc2c(ncn2[C@@H]2O[C@H](COP(=O)(O)OP(=O)(O)OP(O)(O)=S)[C@@H](O)[C@H]2O)c(=O)[nH]1 [GTPγS]
reduction in number of high affinity agonist (^125 I-ABA) binding sites by GTPγS (H/F-A1 receptors): large reduction
reduction of [^3 H]CGS21680 / [^3 H]NECA binding by GTPγS (native A2A receptors): reduced only slightly

CCNC(=O)[C@H]1O[C@@H](n2cnc3c(N)ncnc32)[C@H](O)[C@@H]1O [NECA, 5'-N-ethylcarboxamidondenosine]
NH (Hill coefficient) [6]: 0.95 ± 0.09
NH (Hill coefficient) [8]: 0.97

CCn1c(=O)c2[nH]c(-c3ccccc3)nc2n(CC)c1=O [1,3-diethyl-8-phenylxanthine (DPX), 1,3-diethyl-8-phenylxanthine]
Kb (A2B receptors): 0.03 µM

Source: patent publication US5854081A, “Stable expression of human A2B adenosine receptors, and assays employing the same” (The University of Patent Foundation, priority 1996, dated 1998)
